{"source": "the OligoGym collection", "molecular_target": "SOD1", "settings": "ASO", "note": "Several values for one entry are separate records, joined by “and”; a condition that tells them apart may be missing. Identical values can stand only once. After the bases stand the sugars from the 5' end (letter, count) and the backbone: PS all phosphorothioate, else s phosphorothioate and o phosphodiester by linkage. Methylation of C is not given here. e = 2'-O-(2-methoxyethyl) (MOE); k = constrained ethyl (cEt); d = 2'-deoxy (DNA)", "data": [{"sequence": "CAGGATACATTTCTACA (sugars e2 k2 d8 k2 e3, PS)", "values": [{"measurement": "target mRNA inhibition", "setting": "HepG2, 0.1875 µM", "result": 30, "unit": "%"}, {"measurement": "target mRNA inhibition", "setting": "HepG2, 0.75 µM", "result": 62, "unit": "%"}, {"measurement": "target mRNA inhibition", "setting": "HepG2, 3 µM", "result": 81, "unit": "%"}, {"measurement": "target mRNA inhibition", "setting": "HepG2, 4 µM", "result": 79, "unit": "%"}, {"measurement": "target mRNA inhibition", "setting": "HepG2, 12 µM", "result": 94, "unit": "%"}]}, {"sequence": "TACAGTGTTTAATGTTTA (sugars e5 d8 e5, linkages s1 o3 s9 o2 s2)", "values": [{"measurement": "target mRNA inhibition", "setting": "A431, 0.12 µM", "result": 3, "unit": "%"}, {"measurement": "target mRNA inhibition", "setting": "A431, 0.6 µM", "result": 0, "unit": "%"}, {"measurement": "target mRNA inhibition", "setting": "A431, 3 µM", "result": 1, "unit": "%"}, {"measurement": "target mRNA inhibition", "setting": "A431, 15 µM", "result": 20, "unit": "%"}, {"measurement": "target mRNA inhibition", "setting": "HepG2, 0.222 µM", "result": 13, "unit": "%"}, {"measurement": "target mRNA inhibition", "setting": "HepG2, 0.667 µM", "result": 46, "unit": "%"}, {"measurement": "target mRNA inhibition", "setting": "HepG2, 2 µM", "result": 70, "unit": "%"}, {"measurement": "target mRNA inhibition", "setting": "HepG2, 6 µM", "result": 57, "unit": "%"}]}, {"sequence": "TAAGTCTGGCAAAATAC (sugars e2 k2 d9 k2 e2, PS)", "values": [{"measurement": "target mRNA inhibition", "setting": "HepG2, 5 µM", "result": 46, "unit": "%"}]}, {"sequence": "GATACATTTCTACAGCTAGC (sugars e5 d10 e5, PS)", "values": [{"measurement": "target mRNA inhibition", "setting": "HepG2, 4 µM", "result": 78, "unit": "%"}, {"measurement": "target mRNA inhibition", "setting": "HepG2, 12 µM", "result": 90, "unit": "%"}]}, {"sequence": "GTGATTTAAGTCTGGCA (sugars e2 k2 d8 k2 e3, PS)", "values": [{"measurement": "target mRNA inhibition", "setting": "HepG2, 5 µM", "result": 54, "unit": "%"}]}, {"sequence": "GCGCCTCGCCCACTCTGGCC (sugars e5 d10 e5, PS)", "values": [{"measurement": "target mRNA inhibition", "setting": "HepG2, 4 µM", "result": 33, "unit": "%"}]}, {"sequence": "GGCCCACCGTGTTTTCTGGA (sugars e5 d10 e5, PS)", "values": [{"measurement": "target mRNA inhibition", "setting": "HepG2, 5 µM", "result": "46% and 41%"}]}, {"sequence": "ATTGATGATGCCCTGCACTG (sugars e5 d10 e5, PS)", "values": [{"measurement": "target mRNA inhibition", "setting": "HepG2, 4 µM", "result": 8, "unit": "%"}]}, {"sequence": "TTCATCCTTTGGCCCACCGT (sugars e5 d10 e5, PS)", "values": [{"measurement": "target mRNA inhibition", "setting": "HepG2, 3 µM", "result": 30, "unit": "%"}]}, {"sequence": "TTTAATACCCATCTGTG (sugars e3 k2 d7 k2 e3, PS)", "values": [{"measurement": "target mRNA inhibition", "setting": "HepG2, 3 µM", "result": 0, "unit": "%"}]}, {"sequence": "AGCCTCATAATAAGTGC (sugars e2 k2 d9 k2 e2, PS)", "values": [{"measurement": "target mRNA inhibition", "setting": "HepG2, 5 µM", "result": 11, "unit": "%"}]}, {"sequence": "TCCATTACTTTCCTTCT (sugars e3 k2 d7 k2 e3, PS)", "values": [{"measurement": "target mRNA inhibition", "setting": "HepG2, 3 µM", "result": 18, "unit": "%"}]}, {"sequence": "CTACAGCTAGCAGGATA (sugars e2 k2 d9 k2 e2, PS)", "values": [{"measurement": "target mRNA inhibition", "setting": "HepG2, 0.1875 µM", "result": 30, "unit": "%"}, {"measurement": "target mRNA inhibition", "setting": "HepG2, 0.75 µM", "result": 80, "unit": "%"}, {"measurement": "target mRNA inhibition", "setting": "HepG2, 3 µM", "result": 93, "unit": "%"}, {"measurement": "target mRNA inhibition", "setting": "HepG2, 4 µM", "result": 91, "unit": "%"}, {"measurement": "target mRNA inhibition", "setting": "HepG2, 12 µM", "result": 97, "unit": "%"}]}, {"sequence": "GGGCGATCCCAATTACA (sugars e2 k2 d9 k2 e2, PS)", "values": [{"measurement": "target mRNA inhibition", "setting": "HepG2, 4 µM", "result": 30, "unit": "%"}]}, {"sequence": "CATTACTTTCCTTCTGC (sugars e3 k2 d7 k2 e3, PS)", "values": [{"measurement": "target mRNA inhibition", "setting": "HepG2, 3 µM", "result": 28, "unit": "%"}]}, {"sequence": "TGCCTCTCTTCATCCTT (sugars e3 k2 d7 k2 e3, PS)", "values": [{"measurement": "target mRNA inhibition", "setting": "HepG2, 3 µM", "result": 6, "unit": "%"}]}, {"sequence": "AAGTGAGGACCTGCACT (sugars e3 k2 d7 k2 e3, PS)", "values": [{"measurement": "target mRNA inhibition", "setting": "HepG2, 3 µM", "result": 16, "unit": "%"}]}, {"sequence": "AGGCTTGAATGACAAAGAAA (sugars e5 d10 e5, PS)", "values": [{"measurement": "target mRNA inhibition", "setting": "HepG2, 5 µM", "result": 27, "unit": "%"}]}, {"sequence": "CAGCTAGCAGGATAACA (sugars e3 k2 d7 k2 e3, PS)", "values": [{"measurement": "target mRNA inhibition", "setting": "HepG2, 3 µM", "result": 21, "unit": "%"}]}, {"sequence": "GGATAACAGATGAGTTA (sugars e2 k2 d8 k2 e3, PS)", "values": [{"measurement": "target mRNA inhibition", "setting": "HepG2, 4 µM", "result": 63, "unit": "%"}]}, {"sequence": "AACTCGCTAGGCCACGCCGA (sugars e5 d10 e5, PS)", "values": [{"measurement": "target mRNA inhibition", "setting": "HepG2, 4 µM", "result": 44, "unit": "%"}]}, {"sequence": "ATAACAGATGAGTTAAG (sugars e2 k2 d9 k2 e2, PS)", "values": [{"measurement": "target mRNA inhibition", "setting": "HepG2, 4 µM", "result": 42, "unit": "%"}]}, {"sequence": "GAATGTTTATTGGGCGA (sugars e3 k2 d7 k2 e3, PS)", "values": [{"measurement": "target mRNA inhibition", "setting": "HepG2, 3 µM", "result": 14, "unit": "%"}]}, {"sequence": "GGATACATTTCTACAGC (sugars e2 k2 d8 k2 e3, PS)", "values": [{"measurement": "target mRNA inhibition", "setting": "HepG2, 0.1875 µM", "result": 4, "unit": "%"}, {"measurement": "target mRNA inhibition", "setting": "HepG2, 0.75 µM", "result": 49, "unit": "%"}, {"measurement": "target mRNA inhibition", "setting": "HepG2, 3 µM", "result": 72, "unit": "%"}, {"measurement": "target mRNA inhibition", "setting": "HepG2, 4 µM", "result": 75, "unit": "%"}, {"measurement": "target mRNA inhibition", "setting": "HepG2, 12 µM", "result": 87, "unit": "%"}]}, {"sequence": "CAATTACACCACAAGCC (sugars e2 k2 d8 k2 e3, PS)", "values": [{"measurement": "target mRNA inhibition", "setting": "HepG2, 4 µM", "result": 58, "unit": "%"}]}, {"sequence": "TCTTTTAATAGCCTCAT (sugars e2 k2 d9 k2 e2, PS)", "values": [{"measurement": "target mRNA inhibition", "setting": "HepG2, 5 µM", "result": 56, "unit": "%"}]}, {"sequence": "TCTTCCAAGTGATCATA (sugars e2 k2 d8 k2 e3, PS)", "values": [{"measurement": "target mRNA inhibition", "setting": "HepG2, 5 µM", "result": 33, "unit": "%"}]}, {"sequence": "CAGTCACATTGCCCAAGTCT (sugars e5 d10 e5, PS)", "values": [{"measurement": "target mRNA inhibition", "setting": "HepG2, 5 µM", "result": "40% and 27%"}]}, {"sequence": "GTGTGCGGCCAATGATGCAA (sugars e5 d10 e5, PS)", "values": [{"measurement": "target mRNA inhibition", "setting": "HepG2, 5 µM", "result": 15, "unit": "%"}]}, {"sequence": "TGACAAGTTTAATACCC (sugars e3 k2 d7 k2 e3, PS)", "values": [{"measurement": "target mRNA inhibition", "setting": "HepG2, 3 µM", "result": 27, "unit": "%"}]}, {"sequence": "GGATAACAGATGAGTTA (sugars e3 k2 d7 k2 e3, PS)", "values": [{"measurement": "target mRNA inhibition", "setting": "HepG2, 3 µM", "result": 32, "unit": "%"}]}, {"sequence": "AGCACCCCGTCTCCGCGACT (sugars e5 d10 e5, PS)", "values": [{"measurement": "target mRNA inhibition", "setting": "HepG2, 4 µM", "result": 24, "unit": "%"}]}, {"sequence": "CTCAGACTACATCCAAG (sugars e3 k2 d7 k2 e3, PS)", "values": [{"measurement": "target mRNA inhibition", "setting": "HepG2, 0.1875 µM", "result": 42, "unit": "%"}, {"measurement": "target mRNA inhibition", "setting": "HepG2, 0.75 µM", "result": 72, "unit": "%"}, {"measurement": "target mRNA inhibition", "setting": "HepG2, 3 µM", "result": "76% and 88%"}, {"measurement": "target mRNA inhibition", "setting": "HepG2, 12 µM", "result": 90, "unit": "%"}]}, {"sequence": "ACAAGTTTAATACCCAT (sugars e2 k2 d9 k2 e2, PS)", "values": [{"measurement": "target mRNA inhibition", "setting": "HepG2, 5 µM", "result": 61, "unit": "%"}]}, {"sequence": "AGGGTTTTTATTCACAG (sugars e3 k2 d7 k2 e3, PS)", "values": [{"measurement": "target mRNA inhibition", "setting": "HepG2, 3 µM", "result": 24, "unit": "%"}]}, {"sequence": "ATACATTTCTACAGCT (sugars kekeddddddddekek, linkages s1 o3 s8 o1 s2)", "values": [{"measurement": "target mRNA inhibition", "setting": "A431, 0.12 µM", "result": 15, "unit": "%"}, {"measurement": "target mRNA inhibition", "setting": "A431, 0.6 µM", "result": 14, "unit": "%"}, {"measurement": "target mRNA inhibition", "setting": "A431, 3 µM", "result": 16, "unit": "%"}, {"measurement": "target mRNA inhibition", "setting": "A431, 15 µM", "result": 52, "unit": "%"}, {"measurement": "target mRNA inhibition", "setting": "HepG2, 0.222 µM", "result": 55, "unit": "%"}, {"measurement": "target mRNA inhibition", "setting": "HepG2, 0.667 µM", "result": 73, "unit": "%"}, {"measurement": "target mRNA inhibition", "setting": "HepG2, 2 µM", "result": 89, "unit": "%"}, {"measurement": "target mRNA inhibition", "setting": "HepG2, 6 µM", "result": 95, "unit": "%"}]}, {"sequence": "GTCGCCCTTCAGCACGC (sugars e3 k2 d7 k2 e3, PS)", "values": [{"measurement": "target mRNA inhibition", "setting": "HepG2, 3 µM", "result": 28, "unit": "%"}]}]}
